Test results reported in ChEMBL document CHEMBL5375992, “Design and Development of IKZF2 and CK1α Dual Degraders” (J Med Chem, 2023).
Active and inactive are the calls of the source. The calls are words filed in the database; no cut-off is given here.

How the values were obtained:
[1] = target: T1, Protein cereblon/Zinc finger protein Helios (Homo sapiens) (UniProt Q96SW2+Q9UKS7); experiment: Protac activity at CRBN/IKZF2 in human MOLM-13 cells assessed as relative ratio at 25 uM incubated for 24 hrs by Western blotting analysis relative to DMSO; format: cell-based
[2] = Metabolic stability in mouse liver microsomes assessed as intrinsic clearance preincubated with NADPH and UDPGA for 5 mins followed by compound addition and measured upto 60 mins by LC-MS/MS analysis; format: ADME, Microsome; details: read-out: CLH
[3] = target: T1, Protein cereblon/Zinc finger protein Helios (Homo sapiens); experiment: Protac activity at CRBN/IKZF2 in human MOLM-13 cells at 25 uM incubated for 24 hrs by Western blotting analysis relative to control; format: cell-based
[4] = target: T2, Cereblon/Ikaros (Homo sapiens) (UniProt Q96SW2+Q13422); experiment: Protac activity at CRBN/IKZF1 in human MOLM-13 cells assessed as relative ratio at 25 uM incubated for 24 hrs by Western blotting analysis relative to DMSO; format: cell-based
[5] = Metabolic stability in mouse liver microsomes assessed as half life preincubated with NADPH and UDPGA for 5 mins followed by compound addition and measured upto 60 mins by LC-MS/MS analysis; format: ADME, Microsome
[6] = target: T2, Cereblon/Ikaros (Homo sapiens); experiment: Protac activity at CRBN/IKZF1 in human MOLM-13 cells at 25 uM incubated for 24 hrs by Western blotting analysis relative to control; format: cell-based
[7] = Metabolic stability in human liver microsomes assessed as half life preincubated with NADPH and UDPGA for 5 mins followed by compound addition and measured upto 60 mins by LC-MS/MS analysis; format: ADME, Microsome
[8] = Metabolic stability in human liver microsomes assessed as intrinsic clearance preincubated with NADPH and UDPGA for 5 mins followed by compound addition and measured upto 60 mins by LC-MS/MS analysis; format: ADME, Microsome; details: read-out: CLH
[9] = target: T3, Cereblon/Casein kinase I alpha (Homo sapiens) (UniProt P48729+Q96SW2); experiment: Protac activity at CRBN/CK1alpha (unknown origin) transfected in HEK293T cells at 100 nM incubated for 24 hrs by flow cytometry analysis relative to control; format: cell-based
[10] = target: T1, Protein cereblon/Zinc finger protein Helios (Homo sapiens); experiment: Protac activity at CRBN/IKZF2 (unknown origin) transfected in HEK293T cells at 100 nM incubated for 24 hrs by flow cytometry analysis relative to control; format: cell-based
[11] = target: T4, Protein cereblon/Eukaryotic peptide chain release factor GTP-binding subunit ERF3A (Homo sapiens) (UniProt Q96SW2+P15170); experiment: Protac activity at CRBN/GSPT1 in human NCI-H1048 cells at 10 to 100 nM incubated for 24 hrs by Western blotting analysis; format: cell-based; details: dose 10-100 nM
[12] = target: T4, Protein cereblon/Eukaryotic peptide chain release factor GTP-binding subunit ERF3A (Homo sapiens); experiment: Protac activity at CRBN/GSPT1 (unknown origin) transfected in HEK293T cells at 100 nM incubated for 24 hrs by flow cytometry analysis relative to control; format: cell-based
[13] = target: T4, Protein cereblon/Eukaryotic peptide chain release factor GTP-binding subunit ERF3A (Homo sapiens); experiment: Protac activity at CRBN/GSPT1 (unknown origin) transfected in HEK293T cells at 1 uM incubated for 24 hrs by flow cytometry analysis relative to control; format: cell-based
[14] = target: T3, Cereblon/Casein kinase I alpha (Homo sapiens); experiment: Protac activity at CRBN/CK1alpha (unknown origin) transfected in HEK293T cells at 1 uM incubated for 24 hrs by flow cytometry analysis relative to control; format: cell-based
[15] = target: T1, Protein cereblon/Zinc finger protein Helios (Homo sapiens); experiment: Protac activity at CRBN/IKZF2 (unknown origin) transfected in HEK293T cells at 1 uM incubated for 24 hrs by flow cytometry analysis relative to control; format: cell-based
[16] = target: T2, Cereblon/Ikaros (Homo sapiens); experiment: Protac activity at CRBN/IKZF1 (unknown origin) transfected in HEK293T cells at 100 nM incubated for 24 hrs by flow cytometry analysis relative to control; format: cell-based
[17] = target: T2, Cereblon/Ikaros (Homo sapiens); experiment: Protac activity at CRBN/IKZF1 (unknown origin) transfected in HEK293T cells at 1 uM incubated for 24 hrs by flow cytometry analysis relative to control; format: cell-based
[18] = tested on: A2780; experiment: Cytotoxicity against human A2780 cells incubated for 5 days by MTT assay; format: functional, cell-based; details: time 5.0 day
[19] = tested on: OCI-Ly3; experiment: Cytotoxicity against human OCILY3 cells incubated for 5 days by MTT assay; format: functional, cell-based; details: time 5.0 day

T4 sequence (P15170 whole entry, looked up): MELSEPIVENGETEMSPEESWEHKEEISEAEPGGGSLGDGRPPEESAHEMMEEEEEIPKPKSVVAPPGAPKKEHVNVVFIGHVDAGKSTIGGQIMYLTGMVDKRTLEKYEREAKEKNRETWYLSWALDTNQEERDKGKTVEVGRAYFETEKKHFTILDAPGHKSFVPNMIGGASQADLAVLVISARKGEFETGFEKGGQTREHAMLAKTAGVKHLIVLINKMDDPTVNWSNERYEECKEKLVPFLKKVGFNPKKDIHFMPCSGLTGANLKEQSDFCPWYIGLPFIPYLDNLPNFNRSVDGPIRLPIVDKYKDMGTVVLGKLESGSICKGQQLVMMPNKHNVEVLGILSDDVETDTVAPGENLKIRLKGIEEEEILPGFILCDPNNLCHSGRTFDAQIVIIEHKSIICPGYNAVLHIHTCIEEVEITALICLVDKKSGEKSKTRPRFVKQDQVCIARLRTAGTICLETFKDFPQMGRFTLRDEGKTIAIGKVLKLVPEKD
T4 sequence (Q96SW2 whole entry, looked up): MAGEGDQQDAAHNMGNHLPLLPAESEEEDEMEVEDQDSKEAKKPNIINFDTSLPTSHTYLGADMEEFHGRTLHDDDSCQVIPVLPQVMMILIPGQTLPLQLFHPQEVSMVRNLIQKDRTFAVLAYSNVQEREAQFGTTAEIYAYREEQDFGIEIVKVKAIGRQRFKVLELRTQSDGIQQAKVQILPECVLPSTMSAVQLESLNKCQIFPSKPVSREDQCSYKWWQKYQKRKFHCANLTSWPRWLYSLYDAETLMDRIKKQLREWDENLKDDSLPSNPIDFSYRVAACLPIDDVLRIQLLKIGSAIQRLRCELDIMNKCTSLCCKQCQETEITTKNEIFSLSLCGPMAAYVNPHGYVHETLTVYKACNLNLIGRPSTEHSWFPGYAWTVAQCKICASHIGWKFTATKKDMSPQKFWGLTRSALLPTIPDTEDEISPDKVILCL
T1 sequence (Q96SW2 whole entry, looked up): as above
T1 sequence (Q9UKS7 whole entry, looked up): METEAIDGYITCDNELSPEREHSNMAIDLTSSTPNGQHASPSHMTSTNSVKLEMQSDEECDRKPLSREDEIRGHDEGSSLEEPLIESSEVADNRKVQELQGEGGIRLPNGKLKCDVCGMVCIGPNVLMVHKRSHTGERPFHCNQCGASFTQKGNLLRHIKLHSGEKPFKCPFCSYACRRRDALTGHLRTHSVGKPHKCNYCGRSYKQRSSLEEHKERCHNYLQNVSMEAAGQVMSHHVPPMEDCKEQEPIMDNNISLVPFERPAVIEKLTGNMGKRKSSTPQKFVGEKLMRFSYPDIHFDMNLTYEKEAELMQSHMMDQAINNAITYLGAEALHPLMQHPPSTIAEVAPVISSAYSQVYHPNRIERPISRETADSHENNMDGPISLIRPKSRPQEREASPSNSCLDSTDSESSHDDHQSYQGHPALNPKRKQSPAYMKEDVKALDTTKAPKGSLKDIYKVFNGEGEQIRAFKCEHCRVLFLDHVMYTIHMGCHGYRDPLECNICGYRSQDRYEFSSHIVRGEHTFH
T3 sequence (P48729 2-337 limits assumed): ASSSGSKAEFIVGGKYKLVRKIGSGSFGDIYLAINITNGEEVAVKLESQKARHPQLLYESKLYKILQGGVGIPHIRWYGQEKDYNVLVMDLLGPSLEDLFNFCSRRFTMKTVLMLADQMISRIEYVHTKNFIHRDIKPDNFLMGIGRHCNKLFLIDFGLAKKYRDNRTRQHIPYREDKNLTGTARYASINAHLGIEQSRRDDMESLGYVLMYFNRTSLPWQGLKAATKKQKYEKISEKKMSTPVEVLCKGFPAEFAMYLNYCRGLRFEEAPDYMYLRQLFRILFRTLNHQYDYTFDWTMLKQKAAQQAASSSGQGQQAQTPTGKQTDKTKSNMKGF
T3 sequence (Q96SW2 whole entry partner): as the sequence (Q96SW2 whole entry, looked up) above

| SMILES | microsomal CLint [2] | half-life [5] | half-life [7] | microsomal CLint [8] | Activity [9] | Activity [10] | other results |
| --- | --- | --- | --- | --- | --- | --- | --- |
| O=C1CCC(N2Cc3cc(NC(=O)c4ccc5ccccc5c4)ccc3C2=O)C(=O)N1 (configuration not stated) | < 5.4 µL/min/mg | > 4.25 h | > 4.25 h | < 5.4 µL/min/mg | – | – | Ratio [1]: 0.27; Activity [3]: Active; Ratio [4]: 0.5; Activity [6]: inactive |
| COc1ccc2nc(C(=O)Nc3ccc4c(c3)CN(C3CCC(=O)NC3=O)C4=O)ccc2c1 (configuration not stated) | 57.9 µL/min/mg | 0.398 h | 0.265 h | 87.4 µL/min/mg | 69% | 87% | – |
| Nc1cccc2c1CN(C1CCC(=O)NC1=O)C2=O (configuration not stated) [LENALIDOMIDE] | – | > 6 h | > 6 h | – | – | – | – |
| COc1ccc2cc(C(=O)Nc3ccc4c(c3)CN(C3CCC(=O)NC3=O)C4=O)ccc2n1 (configuration not stated) | < 5.4 µL/min/mg | > 4.25 h | 0.268 h | 108 µL/min/mg | 68% | 89% | – |
| COc1ccc2cc(C(=O)Nc3ccc4c(c3)CN(C3CCC(=O)NC3=O)C4=O)cnc2c1 (configuration not stated) | < 5.4 µL/min/mg | > 4.25 h | 0.338 h | 68.4 µL/min/mg | 62% | 73% | – |
| CCCCOc1ccc2cc(C(=O)Nc3ccc4c(c3)CN(C3CCC(=O)NC3=O)C4=O)ccc2c1 (configuration not stated) | < 5.4 µL/min/mg | > 4.25 h | > 4.25 h | < 5.4 µL/min/mg | 70% | 81% | – |
| COc1ccc2cc(C(=O)Nc3ccc4c(c3)CN(C3CCC(=O)NC3=O)C4=O)ncc2c1 (configuration not stated) | 6.6 µL/min/mg | 3.48 h | 0.04 h | 584 µL/min/mg | 61% | 68% | – |
| COc1cc(C(=O)O)ccc1NC(=O)[C@@H]1N[C@@H](CC(C)(C)C)[C@](C#N)(c2ccc(Cl)cc2F)[C@H]1c1cccc(Cl)c1F | – | – | – | – | – | – | Activity [18]: inactive; Activity [19]: inactive |

The next lines start with results.

| microsomal CLint [2] | half-life [5] | half-life [7] | microsomal CLint [8] | Activity [9] | Activity [10] | SMILES | other results |
| --- | --- | --- | --- | --- | --- | --- | --- |
| 7.4 µL/min/mg | 3.13 h | – | 362 µL/min/mg | 70% | 90% | COc1ccc2cc(C(=O)Nc3ccc4c(c3)CN(C3CCC(=O)NC3=O)C4=O)ccc2c1 (configuration not stated) | Activity [11]: Active; Activity [12]: 8%; Activity [13]: 18%; Activity [14]: 70%; Activity [15]: 94%; Activity [16]: 7%; Activity ([9]; tested as the 2H-labelled form): 52%; Activity [17]: 9%; Activity ([10]; tested as the 2H-labelled form): 70% |
| < 5.4 µL/min/mg | > 4.25 h | > 4.25 h | < 5.4 µL/min/mg | 71% | 80% | CCOc1ccc2cc(C(=O)Nc3ccc4c(c3)CN(C3CCC(=O)NC3=O)C4=O)ccc2c1 (configuration not stated) | – |
| < 5.4 µL/min/mg | > 4.25 h | > 4.25 h | < 5.4 µL/min/mg | 70% | 81% | CC(C)Oc1ccc2cc(C(=O)Nc3ccc4c(c3)CN(C3CCC(=O)NC3=O)C4=O)ccc2c1 (configuration not stated) | – |
| < 5.4 µL/min/mg | > 4.25 h | 0.08 h | 290 µL/min/mg | – | – | [2H]C([2H])([2H])Oc1ccc2cc(C(=O)Nc3ccc4c(c3)CN(C3CCC(=O)NC3=O)C4=O)ccc2c1 (configuration not stated) | – |
